Results published in ChEMBL document CHEMBL5523679, “Discovery of 1,2,3-triazole incorporated indole-piperazines as potent antitubercular agents: Design, synthesis, in vitro biological evaluation, molecular docking and ADME studies” (Bioorg Med Chem, 2024).
Converted amounts (≈) assume the structure as drawn.

Key:
[1] = system: Mycobacterium tuberculosis; assay: Antimycobacterial activity against Mycobacterium tuberculosis H37Rv assessed as bacterial growth inhibition by microplate Alamar blue assay; assay type: functional
Escherichia coli [2] = assay: Antibacterial activity against Escherichia coli assessed as inhibition zone at 75 ug/ml by diffusion method; assay type: functional; details: read-out: IZ
Escherichia coli [3] = assay: Antibacterial activity against Escherichia coli assessed as inhibition zone at 50 ug/ml by diffusion method; assay type: functional; details: read-out: IZ
Escherichia coli [4] = assay: Antibacterial activity against Escherichia coli assessed as inhibition zone at 25 ug/ml by diffusion method; assay type: functional; details: read-out: IZ
Staphylococcus aureus [5] = assay: Antibacterial activity against Staphylococcus aureus assessed as inhibition zone at 75 ug/ml by diffusion method; assay type: functional; details: read-out: IZ
Staphylococcus aureus [6] = assay: Antibacterial activity against Staphylococcus aureus assessed as inhibition zone at 50 ug/ml by diffusion method; assay type: functional; details: read-out: IZ
Pseudomonas aeruginosa [7] = assay: Antibacterial activity against Pseudomonas aeruginosa assessed as inhibition zone at 75 ug/ml by diffusion method; assay type: functional; details: read-out: IZ
Pseudomonas aeruginosa [8] = assay: Antibacterial activity against Pseudomonas aeruginosa assessed as inhibition zone at 50 ug/ml by diffusion method; assay type: functional; details: read-out: IZ
Pseudomonas aeruginosa [9] = assay: Antibacterial activity against Pseudomonas aeruginosa assessed as inhibition zone at 25 ug/ml by diffusion method; assay type: functional; details: read-out: IZ
[10] = Cytotoxicity against African green monkey Vero cells measured after 72 hrs by MTT assay; assay type: toxicity, cell-based; details: chlorocebus sabaeus
[11] = Selectivity index, ratio of CC50 for African green monkey Vero cells to MIC for Mycobacterium tuberculosis H37Rv; assay type: toxicity; details: read-out: Selectivity Index
[12] = Cytotoxicity against African green monkey Vero cells assessed as inhibition of cell growth at 6.25 ug/ml measured after 72 hrs by MTT assay relative to control; assay type: toxicity, cell-based; details: chlorocebus sabaeus, at 6.25 µg/mL
Staphylococcus aureus [13] = assay: Antibacterial activity against Staphylococcus aureus assessed as inhibition zone at 25 ug/ml by diffusion method; assay type: functional; details: read-out: IZ

With `O=C(CCc1cn(Cc2cn(Cc3ccc(F)cc3)nn2)c2ccccc12)N1CCN(C(=O)c2ccccc2C(F)(F)F)CC1` the MIC [1] was 5 µM, the zone of inhibition at 75 µg/mL (Escherichia coli [2]) was 25 mm and the zone of inhibition at 50 µg/mL (Escherichia coli [3]) was 23 mm. It also gave a zone of inhibition at 25 µg/mL (Escherichia coli [4]) of 15 mm, a zone of inhibition at 75 µg/mL (Staphylococcus aureus [5]) of 20 mm and a zone of inhibition at 50 µg/mL (Staphylococcus aureus [6]) of 13 mm. It also gave a zone of inhibition at 75 µg/mL (Pseudomonas aeruginosa [7]) of 18 mm, a zone of inhibition at 50 µg/mL (Pseudomonas aeruginosa [8]) of 15 mm and a zone of inhibition at 25 µg/mL (Pseudomonas aeruginosa [9]) of 10 mm. For the same compound, the CC50 at 72 h [10] was 837 µg/mL (≈ 1350 µM), the selectivity ratio [11] was 268 and the inhibition at 72 h, 6.25 ug/ml [12] was 5.4%.
With `COc1ccc(C(=O)N2CCN(C(=O)CCc3cn(Cc4cn(Cc5ccc(F)cc5)nn4)c4ccccc34)CC2)cc1` the MIC [1] was 2.7 µM, the zone of inhibition at 75 µg/mL (Escherichia coli [2]) was 25 mm and the zone of inhibition at 50 µg/mL (Escherichia coli [3]) was 23 mm. The zone of inhibition at 25 µg/mL (Escherichia coli [4]) was 15 mm, the zone of inhibition at 75 µg/mL (Staphylococcus aureus [5]) was 20 mm and the zone of inhibition at 50 µg/mL (Staphylococcus aureus [6]) was 18 mm. It also gave a zone of inhibition at 25 µg/mL (Staphylococcus aureus [13]) of 12 mm, a zone of inhibition at 75 µg/mL (Pseudomonas aeruginosa [7]) of 18 mm and a zone of inhibition at 50 µg/mL (Pseudomonas aeruginosa [8]) of 13 mm. The zone of inhibition at 25 µg/mL (Pseudomonas aeruginosa [9]) was 9 mm, the CC50 at 72 h [10] was 1470 µg/mL (≈ 2520 µM) and the selectivity ratio [11] was 916. For the same compound, the inhibition at 72 h, 6.25 ug/ml [12] was 8.8%.
Compound `O=C(CCc1cn(Cc2cn(Cc3ccc(F)cc3)nn2)c2ccccc12)N1CCN(S(=O)(=O)c2ccc(F)cc2)CC1` has an MIC [1] of 2.6 µM, a zone of inhibition at 75 µg/mL (Escherichia coli [2]) of 25 mm and a zone of inhibition at 50 µg/mL (Escherichia coli [3]) of 20 mm. For the same compound, the zone of inhibition at 25 µg/mL (Escherichia coli [4]) was 13 mm, the zone of inhibition at 75 µg/mL (Staphylococcus aureus [5]) was 20 mm and the zone of inhibition at 50 µg/mL (Staphylococcus aureus [6]) was 18 mm. The zone of inhibition at 25 µg/mL (Staphylococcus aureus [13]) was 13 mm, the zone of inhibition at 75 µg/mL (Pseudomonas aeruginosa [7]) was 15 mm and the zone of inhibition at 50 µg/mL (Pseudomonas aeruginosa [8]) was 10 mm. For the same compound, the CC50 at 72 h [10] was 1700 µg/mL (≈ 2810 µM), the selectivity ratio [11] was 1060 and the inhibition at 72 h, 6.25 ug/ml [12] was 11.9%.
With `O=C(CCc1cn(Cc2cn(Cc3ccc(F)cc3)nn2)c2ccccc12)N1CCN(S(=O)(=O)c2ccccc2)CC1` the MIC [1] was 10.6 µM, the zone of inhibition at 75 µg/mL (Escherichia coli [2]) was 20 mm and the zone of inhibition at 50 µg/mL (Escherichia coli [3]) was 15 mm. The zone of inhibition at 25 µg/mL (Escherichia coli [4]) was 13 mm, the zone of inhibition at 75 µg/mL (Staphylococcus aureus [5]) was 20 mm and the zone of inhibition at 50 µg/mL (Staphylococcus aureus [6]) was 15 mm. For the same compound, the zone of inhibition at 25 µg/mL (Staphylococcus aureus [13]) was 9 mm, the zone of inhibition at 75 µg/mL (Pseudomonas aeruginosa [7]) was 15 mm and the zone of inhibition at 50 µg/mL (Pseudomonas aeruginosa [8]) was 13 mm. The zone of inhibition at 25 µg/mL (Pseudomonas aeruginosa [9]) was 10 mm, the CC50 at 72 h [10] was 1540 µg/mL (≈ 2630 µM) and the selectivity ratio [11] was 247. For the same compound, the inhibition at 72 h, 6.25 ug/ml [12] was 11.1%.
`O=C(CCc1cn(Cc2cn(Cc3ccc(F)cc3)nn2)c2ccccc12)N1CCN(C(=O)c2ccnc(Cl)c2)CC1` gave an MIC [1] of 2.7 µM, a zone of inhibition at 75 µg/mL (Escherichia coli [2]) of 20 mm and a zone of inhibition at 50 µg/mL (Escherichia coli [3]) of 18 mm. It also gave a zone of inhibition at 75 µg/mL (Staphylococcus aureus [5]) of 18 mm, a zone of inhibition at 50 µg/mL (Staphylococcus aureus [6]) of 13 mm and a zone of inhibition at 25 µg/mL (Staphylococcus aureus [13]) of 13 mm. For the same compound, the zone of inhibition at 75 µg/mL (Pseudomonas aeruginosa [7]) was 15 mm, the zone of inhibition at 50 µg/mL (Pseudomonas aeruginosa [8]) was 13 mm and the zone of inhibition at 25 µg/mL (Pseudomonas aeruginosa [9]) was 10 mm. For the same compound, the CC50 at 72 h [10] was 1080 µg/mL (≈ 1840 µM), the selectivity ratio [11] was 673 and the inhibition at 72 h, 6.25 ug/ml [12] was 11.8%.
For `O=C(CCc1cn(Cc2cn(Cc3ccc(F)cc3)nn2)c2ccccc12)N1CCN(C(=O)c2cccnc2Cl)CC1`, the MIC [1] was 5.3 µM, the zone of inhibition at 75 µg/mL (Escherichia coli [2]) was 25 mm and the zone of inhibition at 50 µg/mL (Escherichia coli [3]) was 23 mm. For the same compound, the zone of inhibition at 25 µg/mL (Escherichia coli [4]) was 13 mm, the zone of inhibition at 75 µg/mL (Staphylococcus aureus [5]) was 18 mm and the zone of inhibition at 50 µg/mL (Staphylococcus aureus [6]) was 15 mm. For the same compound, the zone of inhibition at 25 µg/mL (Staphylococcus aureus [13]) was 10 mm, the zone of inhibition at 75 µg/mL (Pseudomonas aeruginosa [7]) was 13 mm and the zone of inhibition at 50 µg/mL (Pseudomonas aeruginosa [8]) was 10 mm. The CC50 at 72 h [10] was 946 µg/mL (≈ 1610 µM), the selectivity ratio [11] was 303 and the inhibition at 72 h, 6.25 ug/ml [12] was 10.1%.
`O=C(CCc1cn(Cc2cn(Cc3ccc(F)cc3)nn2)c2ccccc12)N1CCN(C(=O)c2ccc(Cl)cc2)CC1` gave an MIC [1] of 10.7 µM, a zone of inhibition at 75 µg/mL (Escherichia coli [2]) of 23 mm and a zone of inhibition at 50 µg/mL (Escherichia coli [3]) of 20 mm. It also gave a zone of inhibition at 25 µg/mL (Escherichia coli [4]) of 13 mm, a zone of inhibition at 75 µg/mL (Staphylococcus aureus [5]) of 18 mm and a zone of inhibition at 50 µg/mL (Staphylococcus aureus [6]) of 15 mm. It also gave a zone of inhibition at 25 µg/mL (Staphylococcus aureus [13]) of 6 mm, a zone of inhibition at 75 µg/mL (Pseudomonas aeruginosa [7]) of 15 mm and a zone of inhibition at 50 µg/mL (Pseudomonas aeruginosa [8]) of 12 mm. The CC50 at 72 h [10] was 986 µg/mL (≈ 1680 µM), the selectivity ratio [11] was 158 and the inhibition at 72 h, 6.25 ug/ml [12] was 7.9%.
`O=C(CCc1cn(Cc2cn(Cc3ccc(F)cc3)nn2)c2ccccc12)N1CCN(C(=O)c2ccncc2F)CC1` gave an MIC [1] of 5.5 µM, a zone of inhibition at 75 µg/mL (Escherichia coli [2]) of 20 mm and a zone of inhibition at 50 µg/mL (Escherichia coli [3]) of 15 mm. The zone of inhibition at 75 µg/mL (Staphylococcus aureus [5]) was 18 mm, the zone of inhibition at 50 µg/mL (Staphylococcus aureus [6]) was 15 mm and the zone of inhibition at 25 µg/mL (Staphylococcus aureus [13]) was 10 mm. For the same compound, the zone of inhibition at 75 µg/mL (Pseudomonas aeruginosa [7]) was 18 mm, the zone of inhibition at 50 µg/mL (Pseudomonas aeruginosa [8]) was 15 mm and the zone of inhibition at 25 µg/mL (Pseudomonas aeruginosa [9]) was 10 mm. It also gave a CC50 at 72 h [10] of 882 µg/mL (≈ 1550 µM), a selectivity ratio [11] of 283 and an inhibition at 72 h, 6.25 ug/ml [12] of 8.5%.
